Where “and” joins values, the source holds several entries; their conditions need not be identical. Identical values can stand only once. Like-named read-outs stand apart in the source and are kept apart here. Marks after values point to notes of the source that are not given here.
Columns and labels:
[1] = system: TNF-α secretion from human whole blood; experiment: Whole blood TNF-α secretion assay (LPS or SEB); format: cell-based
[2] = system: Hidradenitis suppurativa (HS); conditions: two phase II studies, moderate HS; none of the patients in the placebo group; cited from earlier work
TNF-α = experiment: LPS-induced TNF-α in ferrets after single oral administration; conditions: oral 1 and 3 mg/kg; 1 hour after LPS (3 mg/kg ip)
[3] = system: conscious, unrestrained ferret; conditions: in vivo, po, 1 mg/kg
Emesis study in ferrets = conditions: ferret, in vivo, po
[4] = Homo sapiens, 24 h, SEB 1 μg/mL, 24 hours, donor 1, read-out: Emax
[5] = Homo sapiens, 48 h, SEB 1 μg/mL, 48 hours, donor 1, read-out: Emax
[6] = Homo sapiens, 48 h, SEB 1 μg/mL, 48 hours, donor 2, read-out: Emax

Molecule `C[C@@H]1CCN(C(=O)CC#N)C[C@@H]1N(C)c1ncnc2[nH]ccc12` [Tofacitinib] has an Emax [1, 4] of 98%, an Emax [1, 5] of 95% and an Emax [1, 6] of 102%. For the same molecule, the “Effect on TNF-α secretion (in words)” value ([1]; LPS 1 μg/mL, 24 hours) was “Stimulation”, the “Effect on TNF-α secretion (in words)” value ([1]; LPS 1 μg/mL, 48 hours) was “Stimulation” and the Emax ([1]; SEB 1 μg/mL, 24 hours, donor 2) was 100*.
Molecule `O=C(Nc1c(Cl)c[n+]([O-])cc1Cl)c1ccc(OC(F)F)c(OCC2CC2)c1` [Roflumilast N-oxide] has an Emax ([1]; LPS 1 μg/mL, 24 hours, donor 1, Emax defined as TNF-α level in un-stimulated wells) of 72, an EC50 ([1]; LPS 1 μg/mL, 24 hours, donor 1, read-out: EC50) of 23.4 nM and an Emax ([1]; LPS 1 μg/mL, 24 hours, donor 2) of 79. It also gave an EC50 ([1]; LPS 1 μg/mL, 24 hours, donor 2, read-out: EC50) of 24 nM, an Emax ([1]; LPS 1 μg/mL, 48 hours, donor 1) of 75 and an EC50 ([1]; LPS 1 μg/mL, 48 hours, donor 1, read-out: EC50) of 38.6 nM. The Emax ([1]; LPS 1 μg/mL, 48 hours, donor 2) was 78, the EC50 ([1]; LPS 1 μg/mL, 48 hours, donor 2, read-out: EC50) was 35 nM and the Emax ([1]; SEB 1 μg/mL, 24 hours, donor 1) was 97. The EC50 ([1]; SEB 1 μg/mL, 24 hours, donor 1, read-out: EC50) was 8.69 nM, the Emax ([1]; SEB 1 μg/mL, 24 hours, donor 2) was 66 and the EC50 ([1]; SEB 1 μg/mL, 24 hours, donor 2, read-out: EC50) was 35.6 nM. The Emax ([1]; SEB 1 μg/mL, 48 hours, donor 1) was 97, the EC50 ([1]; SEB 1 μg/mL, 48 hours, donor 1, read-out: EC50) was 4.77 nM and the Emax ([1]; SEB 1 μg/mL, 48 hours, donor 2) was 80. For the same molecule, the EC50 ([1]; SEB 1 μg/mL, 48 hours, donor 2, read-out: EC50) was 33.4 nM, the “Geometric mean of EC50 values across different assay parameters” value ([1]; mean of 8 determinations (LPS and SEB, 24 and 48 hours, 2 donors)) was 8.80 ng/mL and the EC50 ([1]; mean of 8 determinations (LPS and SEB, 24 and 48 hours, 2 donors), read-out: Geometric mean of EC50 values across different assay parameters) was 21 nM.
With `CCOc1cc([C@@H](CS(C)(=O)=O)N2C(=O)c3cccc(NC(C)=O)c3C2=O)ccc1OC` [Apremilast] the Emax ([1]; Homo sapiens, 24 h, LPS 1 μg/mL, 24 hours, donor 1, Emax defined as TNF-α level in un-stimulated wells, read-out: Emax) was 74%, the EC50 ([1]; Homo sapiens, 24 h, LPS 1 μg/mL, 24 hours, donor 1, read-out: EC50) was 210 nM and the EC50 ([1]; Homo sapiens, 24 h, LPS 1 μg/mL, 24 hours, donor 2, read-out: EC50) was 283 nM. It also gave an Emax ([1]; Homo sapiens, 24 h, LPS 1 μg/mL, 24 hours, donor 2, read-out: Emax) of 79%, an Emax [1, 4] of 98% and an EC50 ([1]; Homo sapiens, 24 h, SEB 1 μg/mL, 24 hours, donor 2, read-out: EC50) of 620 nM. It also gave an Emax ([1]; Homo sapiens, 24 h, SEB 1 μg/mL, 24 hours, donor 2, read-out: Emax) of 65%, an EC50 ([1]; Homo sapiens, 48 h, LPS 1 μg/mL, 48 hours, donor 1, read-out: EC50) of 277 nM and an Emax ([1]; Homo sapiens, 48 h, LPS 1 μg/mL, 48 hours, donor 1, read-out: Emax) of 77%. It also gave an EC50 ([1]; Homo sapiens, 48 h, LPS 1 μg/mL, 48 hours, donor 2, read-out: EC50) of 364 nM, an Emax ([1]; Homo sapiens, 48 h, LPS 1 μg/mL, 48 hours, donor 2, read-out: Emax) of 78% and an EC50 ([1]; Homo sapiens, 48 h, SEB 1 μg/mL, 48 hours, donor 1, read-out: EC50) of 155 nM. For the same molecule, the Emax [1, 5] was 97%, the EC50 ([1]; Homo sapiens, 48 h, SEB 1 μg/mL, 48 hours, donor 2, read-out: EC50) was 573 nM and the Emax [1, 6] was 80%. For the same molecule, the EC50 ([1]; Homo sapiens, mean of 8 determinations (LPS and SEB, 24 and 48 hours, 2 donors), read-out: Geometric mean of EC50 values across different assay parameters) was 287 nM and 0.132 µg/mL and the “treated patients with a positive HS clinical response (HiSCR)” value [2] was “more than 50%”.
In the case of `O=C(Nc1c(Cl)cncc1Cl)c1ccc(OC(F)F)c(OCC2CC2)c1` [Roflumilast], the “increase of TNF-α levels observed at 1 hour” value (TNF-α) is reported as “attenuated in a dose-related manner”, the Emetogenic properties [3] is reported as “absent” and the NOAEL at 3 h (Emesis study in ferrets) is reported as 1 mg/kg.

Source: patent US20250268876A1, “TREATMENT OF HIDRADENITIS SUPPURATIVA WITH ORISMILAST” (UNION THERAPEUTICS A/S, priority 2021, published 2025)
